Laboratory results from patent US6410585B1, “Inhibitors of protein tyrosine phosphatase” (priority 1997, dated 2002).
Like-named read-outs stand apart in the source and are kept apart here.

Target: T1, rat PTP1 (Rattus norvegicus, UniProt P20417)
T1 construct: a C-terminal truncation of rat PTP1 (amino acid residues 1-322); GST (N, cleaved yes); made in house; host or cells: E. coli strain TG-1 (pGEX-2T)
T1 sequence (P20417 1-322): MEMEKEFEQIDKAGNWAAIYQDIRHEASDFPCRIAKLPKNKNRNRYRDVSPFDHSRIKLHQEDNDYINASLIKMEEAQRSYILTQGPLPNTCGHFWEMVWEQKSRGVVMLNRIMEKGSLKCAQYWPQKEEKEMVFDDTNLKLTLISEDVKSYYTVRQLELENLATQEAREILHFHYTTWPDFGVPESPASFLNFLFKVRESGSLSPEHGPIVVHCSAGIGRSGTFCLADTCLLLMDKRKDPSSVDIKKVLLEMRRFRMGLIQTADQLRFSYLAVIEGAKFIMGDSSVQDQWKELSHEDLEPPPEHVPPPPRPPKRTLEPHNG
Test: PTP1 assay, pNPP hydrolysis (rate of change in A405)
Assay type: biochemical
From the text: PTP1 Assays: A construct, which consisted of a C-terminal truncation of rat PTP1 (amino acid residues 1-322) (cloned from a rat brain library) with an N-terminal glutathione S-transferase (GST) tag and an adjacent thrombin cleavage site, was inserted into vector plasmid pGEX-2T and transformed into E. coli strain TG-1 under the control of a lac promoter (K. L. Guan and J. E. Dixon (1991) Eukaryotic proteins expressed in Escherichia coli: an improved thrombin cleavage and purification procedure of fusion proteins with glutathione S-transferase. Analyt. Biochem. 192: 262-267). The GST-fusion protein was purified on a glutathione agarose affinity column, the GST tag was cleaved with thrombin, and the active enzyme was recovered for use in an assay to identify PTP inhibitors.
PTP1 activity is measured using either p-nitrophenol phosphate (pNPP) or a triphosphopeptide (that matches residues 1142 through 1153 of the β-subunit and the insulin receptor) as substrate in a 96-well microtiter plate format. An assay pH of 7.2 is used for standard assays (measured 405=9800 at pH 7.2).
Standard assays are conducted at room temperature in a total volume of 0.2 ml that contains Hepes buffer (50 mM, pH 7.2), NaCl (50 mM), EDTA (1 mM), DTT (1 mM), bovine serum albumin (1 mg/ml), pNPP (1 mM) and PTP1 (35 ng/ml). Compounds (2 μl of 10 mM solutions) are pipetted into wells of microtiter plates followed by 198 μl of premixed reaction mix (with PTP1 and pNPP added immediately before use). The rate of change in A405 is recorded for 60 min. Two wells on each plate contain DMSO controls and two wells contain sodium orthovanadate (1 mM) which inhibits PTP1-catalyzed hydrolysis of pNPP completely. Data are expressed as percent inhibition relative to the average of the DMSO controls measured on the same microtiter plate.

[1] = Conc 1 uM, pNPP hydrolysis, Table 1, read-out: PTP1 Inhib % Inhib
[2] = Conc 10 uM, pNPP hydrolysis, Table 1, read-out: PTP1 Inhib % Inhib
[3] = Conc 100 uM, pNPP hydrolysis, Table 1, read-out: PTP1 Inhib % Inhib
[4] = inhibition of pNPP-hydrolysis, compound concentration 1 μM, read-out: % Inhibition
[5] = inhibition of pNPP-hydrolysis, compound concentration 10 μM, read-out: % Inhibition
[6] = inhibition of pNPP-hydrolysis, compound concentration 100 μM, read-out: % Inhibition
[7] = Conc 1 uM, pNPP hydrolysis, Table 2, read-out: PTP1 Inhib PTP1N. % Inhib
[8] = Conc 10 uM, pNPP hydrolysis, Table 2, read-out: PTP1 Inhib PTP1N. % Inhib
[9] = Conc 100 uM, pNPP hydrolysis, Table 2, read-out: PTP1 Inhib PTP1N. % Inhib

SMILES | inhibition at 1 µM [1] [%] | inhibition at 10 µM [2] [%] | inhibition at 100 µM [3] [%] | further results
CCCCCNC(=O)[C@H](Cc1ccc(CC(C(=O)O)C(=O)O)cc1)NC(=O)CCC(=O)O | 0 | 3 | 34 | 
CCCCCNC(=O)[C@H](Cc1ccc(OC(C(=O)O)C(=O)O)cc1)NC(=O)CC1(CC(=O)O)CCCC1 | 2 | 20 | 72 | 
CCCCCNC(=O)[C@H](Cc1ccc(OC(C(=O)O)C(=O)O)cc1)NC(=O)C1C2CCC(CC2)C1C(=O)O (stereo partly drawn) | 4 | 5 | 41 | 
O=C(O)CCC(=O)NC(Cc1ccc(OC(COO)COO)cc1)C(=O)NCc1cccc2ccccc12 (stereo not drawn) | 7 | 18 | 61 | 
O=C(O)COc1ccc(C[C@H](NC(=O)c2ccccc2)C(=O)NCCCCc2ccc(Cl)cc2)cc1C(=O)O [Example 154-19, 5-((2S)-2-(benzoylamino)-3-{[4-(4-chlorophenyl)butyl]amino}-3-oxopropyl)-2-(carboxymethoxy)benzoic acid] |  |  |  | inhibition at 1 µM [4]: 40%; inhibition at 10 µM [5]: 55%; inhibition at 100 µM [6]: 98%
CCCCCNC(=O)C(Cc1ccc(OC(COO)COO)cc1)NC(=O)N(Cc1ccc(CC(=O)O)cc1)Cc1cccc(C(F)(F)F)c1 (stereo not drawn) |  |  |  | inhibition at 1 µM [7]: 4%; inhibition at 10 µM [8]: 51%; inhibition at 100 µM [9]: 92%
O=C(O)COc1ccc(C[C@H](NS(=O)(=O)c2ccccc2)C(=O)NCCCOc2ccccc2)cc1C(=O)O [Example 156-16, 2-(carboxymethoxy)-5-{(2S)-3-oxo-3-[(3-phenoxypropyl)amino]-2-[(phenylsulfonyl)amino]propyl}benzoic acid] |  |  |  | inhibition at 1 µM [4]: 20%; inhibition at 10 µM [5]: 72%; inhibition at 100 µM [6]: 95%
CCOC(CNC(=O)[C@H](Cc1ccc(OC(C(=O)O)C(=O)O)cc1)NC(=O)CCC(=O)O)OCC | 0 | 7 | 46 | 
CCCCCNC(=O)C(Cc1ccc(OC(CCOO)COO)cc1)NC(=O)CCC(=O)O (stereo not drawn) | 0 | 1 | 34 | 
CCCCCNC(=O)C(Cc1ccc(OCC(=O)O)c(COO)c1)NC(=O)CCC(=O)O (stereo not drawn) | 17 | 63 | 93 | 
CCCCCNC(=O)C(Cc1ccc(OC(COO)COO)cc1)NC(=O)C(Cc1ccc(OCc2c(Cl)cccc2Cl)cc1)NC(=O)OC(C)(C)C (stereo not drawn) |  |  |  | inhibition at 1 µM [7]: 3%; inhibition at 10 µM [8]: 12%; inhibition at 100 µM [9]: 85%
CC(C)(C)OC(=O)N[C@@H](Cc1ccccc1)C(=O)N[C@@H](Cc1ccc(OCC(=O)O)c(C(=O)O)c1)C(=O)NCc1cccnc1 [Example 157-14, 5-{(2S)-2-({(2S)-2-[(tert-Butoxycarbonyl)amino]-3-phenylpropanoyl}amino)-3-oxo-3-[(3-pyridinylmethyl)amino]propyl}-2-(carboxymethoxy)benzoic Acid] |  |  |  | inhibition at 1 µM [4]: 20%; inhibition at 10 µM [5]: 67%; inhibition at 100 µM [6]: 94%
CCCCCCNC(=O)[C@H](Cc1ccc(OC(C(=O)O)C(=O)O)cc1)NC(=O)CCC(=O)O | 3 | 17 | 74 | 
O=C(O)COc1ccc(C[C@H](NC(=O)c2ccc(Cl)cc2)C(=O)NCCCCc2ccccc2)cc1C(=O)O [Example 154-9, 2-(carboxymethoxy)-5-{(2S)-2-[(4-chlorobenzoyl)amino]-3-oxo-3-[(4-phenylbutyl)amino]propyl}benzoic acid] |  |  |  | inhibition at 1 µM [4]: 37%; inhibition at 10 µM [5]: 85%; inhibition at 100 µM [6]: 97%
CCCCCNC(=O)[C@H](Cc1ccc(OC(C(=O)O)C(=O)O)cc1)NC(=O)C(CC(=O)O)NC(=O)CCC(=O)O (stereo partly drawn) | 27 | 75 | 96 | 
O=C(O)COc1ccc(C[C@H](NC(=O)c2ccoc2)C(=O)NCCCCc2ccc(Cl)cc2)cc1C(=O)O [Example 154-26, 2-(carboxymethoxy)-5-[(2S)-3-{[4-(4-chlorophenyl)butyl]amino}-2-(3-furoylamino)-3-oxopropyl]benzoic acid] |  |  |  | inhibition at 1 µM [4]: 30%; inhibition at 10 µM [5]: 78%; inhibition at 100 µM [6]: 97%
CC(C)(C)OC(=O)N[C@@H](Cc1ccccc1)C(=O)N[C@@H](Cc1ccc(OCC(=O)O)c(C(=O)O)c1)C(=O)NCCO [Example 157-3, 5-{(2S)-2-({(2S)-2-[(tert-Butoxycarbonyl)amino]-3-phenylpropanoyl}amino)-3-[(2-hydroxyethyl)amino]-3-oxopropyl}-2-(carboxymethoxy)benzoic] |  |  |  | % Inhibition (inhibition of pNPP-hydrolysis, compound concentration 1 μM): 22%; % Inhibition (inhibition of pNPP-hydrolysis, compound concentration 10 μM): 72%; % Inhibition (inhibition of pNPP-hydrolysis, compound concentration 100 μM): 94%
CC(C)OCCCNC(=O)[C@H](Cc1ccc(OCC(=O)O)c(C(=O)O)c1)NC(=O)[C@H](Cc1ccccc1)NC(=O)OC(C)(C)C [Example 157-16, 5-{(2S)-2-({(2S)-2-[(tert-Butoxycarbonyl)amino]-3-phenylpropanoyl}amino)-3-[(3-isopropoxypropyl)amino]-3-oxopropyl}-2-(carboxymethoxy)benzoic Acid] |  |  |  | inhibition at 1 µM [4]: 38%; inhibition at 10 µM [5]: 83%; inhibition at 100 µM [6]: 97%
CCCCCNC(=O)[C@H](Cc1ccc(OC(C(=O)O)C(=O)O)cc1)NC(=O)CC(=O)O | 4 | 20 | 74 | 
CCCCCNC(=O)C(Cc1ccc(OC(COO)COO)cc1)NC(=O)CCC(=O)O (stereo not drawn) [drawing 101] |  |  |  | PTP1 Inhib % Inhib (Conc 1 uM, pNPP hydrolysis, Table 1): 3%; PTP1 Inhib % Inhib (Conc 10 uM, pNPP hydrolysis, Table 1): 4%; PTP1 Inhib % Inhib (Conc 100 uM, pNPP hydrolysis, Table 1): 39%
CCCCCNC(=O)C(Cc1ccc(OC(COO)COO)cc1)NC(=O)NC(CCC(=O)O)C(=O)O (stereo not drawn) | 17 | 64 | 94 | 
CCCCCNC(=O)C(Cc1ccc(OC(COO)COO)cc1)NC(=O)C(Cc1ccc(OCc2ccccc2)cc1)NC(=O)CCC(=O)O (stereo not drawn) |  |  |  | inhibition at 1 µM [7]: 30%; inhibition at 10 µM [8]: 80%; inhibition at 100 µM [9]: 98%
CC(C)(C)OC(=O)N[C@@H](Cc1ccccc1)C(=O)N[C@@H](Cc1ccc(OCC(=O)O)c(C(=O)O)c1)C(=O)NCCCCc1ccccc1 [Example 157-2, 5-{(2S)-2-({(2S)-2-[(tert-Butoxycarbonyl)amino]-3-phenylpropanoyl}amino)-3-oxo-3-[(4-phenylbutyl)amino]propyl}-2-(carboxymethoxy)benzoic Acid] |  |  |  | inhibition at 1 µM [4]: 64%; inhibition at 10 µM [5]: 93%; inhibition at 100 µM [6]: 98%
CCCCCNC(=O)[C@H](Cc1ccc(OC(C(=O)O)C(=O)O)cc1)NC(=O)[C@H](CCC(=O)O)NC(=O)OC(C)(C)C | 5 | 34 | 83 | 
CCCCCNC(=O)C(Cc1ccc(OC(COO)COO)cc1)NC(=O)NCC(=O)NCC(=O)O (stereo not drawn) |  |  |  | inhibition at 1 µM [7]: 12%; inhibition at 10 µM [8]: 56%; inhibition at 100 µM [9]: 93%
O=C(O)CCC(=O)N[C@@H](Cc1ccc(OC(C(=O)O)C(=O)O)cc1)C(=O)NCCCn1ccnc1 | 2 | 3 | 26 | 
O=C(O)COc1ccc(C[C@H](NC(=O)c2cccnc2)C(=O)NCCCCc2ccccc2)cc1C(=O)O [Example 154-11, 2-(carboxymethoxy)-5-{(2S)-3-oxo-3-[(4-phenylbutyl)amino]-2-[(3-pyridinylcarbonyl)amino]propyl}benzoic acid] |  |  |  | inhibition at 1 µM [4]: 22%; inhibition at 10 µM [5]: 73%; inhibition at 100 µM [6]: 95%
CCCCCNC(=O)C(Cc1ccc(OC(C(=O)O)C(=O)O)cc1)NC(=O)C(CC(=O)O)NC(=O)OC(C)(C)C (stereo not drawn) | 16 | 62 | 94 | 
CCCCCNC(=O)C(Cc1ccc(OC(COO)COO)cc1)NC(=O)C(Cc1ccc(C(=O)c2ccccc2)cc1)NC(=O)CCC(=O)O (stereo not drawn) [drawing 133] | 42 | 87 | 98 | 
